Source: PMC10122656, “Siglec-6 mediates the uptake of extracellular vesicles through a noncanonical glycolipid binding pocket” (Nature Communications, 2023)
“And” between values parts separate entries of the source, which are not always exact repeats. Identical values can stand only once.

Assays:
Test in all cases: Cell assay (liposome/EV binding, flow cytometry)
Type in all cases: cell-based
R122A Siglec-6 CHO cells = target: T1, R122A Siglec-6 CHO cells (Homo sapiens, UniProt O43699, R122A); settings: Sig-6 R122A; 3 mol% ganglioside liposomes; replicates
T1 construct: expressed in transfected cells
Method in brief: (§1)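 CHO cells expressing the indicated Siglec (wild-type or R-to-A mutant) were incubated 30 min at 37 °C with 50 µM fluorescent DSPC/cholesterol/PEG-DSPE liposomes (~130 nm, Siglec ligand-bearing) or 50 µg/mL EVs in DMEM F12 5% FBS. After washing and anti-Siglec staining on ice, binding was measured by flow cytometry on Siglec-positive gated cells.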

CD22 WT CHO cells = target: T2, CD22 WT CHO cells (Homo sapiens, UniProt P20273); settings: 3 mol% ganglioside liposomes, replicates
T2 construct: expressed in transfected cells
T2 sequence (P20273 20-847): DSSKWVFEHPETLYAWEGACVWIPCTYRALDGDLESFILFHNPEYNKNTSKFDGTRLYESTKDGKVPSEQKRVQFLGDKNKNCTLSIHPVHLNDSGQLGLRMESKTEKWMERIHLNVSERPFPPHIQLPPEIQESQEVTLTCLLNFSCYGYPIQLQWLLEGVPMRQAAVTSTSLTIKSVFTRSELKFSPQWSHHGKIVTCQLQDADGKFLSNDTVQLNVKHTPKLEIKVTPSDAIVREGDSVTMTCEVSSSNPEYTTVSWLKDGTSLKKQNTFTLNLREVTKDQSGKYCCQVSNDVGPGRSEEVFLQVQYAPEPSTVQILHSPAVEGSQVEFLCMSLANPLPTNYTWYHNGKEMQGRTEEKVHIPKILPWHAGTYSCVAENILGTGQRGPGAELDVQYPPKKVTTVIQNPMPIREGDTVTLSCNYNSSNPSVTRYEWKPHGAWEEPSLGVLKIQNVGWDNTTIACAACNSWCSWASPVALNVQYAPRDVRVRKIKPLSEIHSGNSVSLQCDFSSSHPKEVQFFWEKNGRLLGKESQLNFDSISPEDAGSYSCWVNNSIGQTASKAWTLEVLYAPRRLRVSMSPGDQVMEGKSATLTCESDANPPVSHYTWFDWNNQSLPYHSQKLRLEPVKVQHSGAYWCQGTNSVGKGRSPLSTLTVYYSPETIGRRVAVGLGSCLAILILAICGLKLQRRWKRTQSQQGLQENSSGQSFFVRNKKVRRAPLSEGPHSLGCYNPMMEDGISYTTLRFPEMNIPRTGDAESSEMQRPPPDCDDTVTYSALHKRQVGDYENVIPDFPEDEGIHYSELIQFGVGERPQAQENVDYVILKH
Method in brief: as §1

Siglec-11 WT CHO cells = target: T3, Siglec-11 WT CHO cells (Homo sapiens, UniProt Q96RL6); settings: Sig-11 WT; 3 mol% ganglioside liposomes; replicates
T3 construct: expressed in transfected cells
T3 sequence (Q96RL6 28-698): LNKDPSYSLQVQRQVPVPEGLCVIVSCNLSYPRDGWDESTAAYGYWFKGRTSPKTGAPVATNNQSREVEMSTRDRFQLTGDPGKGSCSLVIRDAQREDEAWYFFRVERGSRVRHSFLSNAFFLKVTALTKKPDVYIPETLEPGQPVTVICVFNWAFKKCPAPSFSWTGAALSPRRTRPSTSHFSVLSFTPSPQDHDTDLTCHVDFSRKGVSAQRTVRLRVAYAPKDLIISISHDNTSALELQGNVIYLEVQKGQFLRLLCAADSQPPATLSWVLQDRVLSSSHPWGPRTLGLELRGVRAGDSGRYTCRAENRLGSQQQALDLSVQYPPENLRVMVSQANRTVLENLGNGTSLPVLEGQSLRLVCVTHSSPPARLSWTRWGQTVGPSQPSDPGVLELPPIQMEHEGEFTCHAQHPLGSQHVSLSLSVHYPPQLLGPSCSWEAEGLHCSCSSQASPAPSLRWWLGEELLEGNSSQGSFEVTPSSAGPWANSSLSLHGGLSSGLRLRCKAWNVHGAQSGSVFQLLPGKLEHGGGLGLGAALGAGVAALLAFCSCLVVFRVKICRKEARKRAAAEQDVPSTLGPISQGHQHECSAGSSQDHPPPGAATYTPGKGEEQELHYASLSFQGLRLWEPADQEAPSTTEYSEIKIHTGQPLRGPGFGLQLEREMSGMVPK
Method in brief: as §1

CD33 WT CHO cells = target: T4, CD33 WT CHO cells (Homo sapiens, UniProt P20138); settings: 3 mol% ganglioside liposomes, replicates
T4 construct: expressed in transfected cells
Method in brief: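 Cells are incubated for 30 min at 37 °C with ligand-displaying liposomes (50 µM lipid) or EVs (50 µg/mL protein) in DMEM F12 containing 5% FBS. After washing and anti-Siglec staining on ice, liposome binding is quantified by flow cytometry within the Siglec-positive population.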

WT Siglec-6 CHO cells = target: T5, WT Siglec-6 CHO cells (Homo sapiens, UniProt O43699); settings: Sig-6 WT; 3 mol% ganglioside liposomes; replicates
T5 construct: expressed in transfected cells
Method in brief: as §1

Siglec-1 R116A CHO cells = target: T6, Siglec-1 R116A CHO cells (Homo sapiens, UniProt Q9BZZ2, R116A); settings: Sig-1 R116A; 3 mol% ganglioside liposomes; replicates
T6 construct: expressed in transfected cells
Method in brief: as §1

Siglec-8 R125A CHO cells = target: T7, Siglec-8 R125A CHO cells (Homo sapiens, UniProt Q9NYZ4, R125A); settings: Sig-8 R125A; 3 mol% ganglioside liposomes; replicates
T7 construct: expressed in transfected cells
Method in brief: as §1

T5 sequence (O43699 27-453): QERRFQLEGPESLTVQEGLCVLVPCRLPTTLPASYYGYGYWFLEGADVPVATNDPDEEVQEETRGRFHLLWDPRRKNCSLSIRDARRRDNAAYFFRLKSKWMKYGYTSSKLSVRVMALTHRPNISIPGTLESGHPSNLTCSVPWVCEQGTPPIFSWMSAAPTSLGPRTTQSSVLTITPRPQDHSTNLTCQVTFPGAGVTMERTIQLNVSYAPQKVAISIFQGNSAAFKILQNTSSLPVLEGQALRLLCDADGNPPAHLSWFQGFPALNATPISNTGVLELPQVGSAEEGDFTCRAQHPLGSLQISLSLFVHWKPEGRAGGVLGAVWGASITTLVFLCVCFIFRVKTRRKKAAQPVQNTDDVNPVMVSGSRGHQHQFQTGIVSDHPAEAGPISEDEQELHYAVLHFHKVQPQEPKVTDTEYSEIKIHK
T1 sequence (O43699 27-453 R122A): as the sequence (O43699 27-453) above, with R96A counted along it
T6 sequence (Q9BZZ2 20-1709 R116A): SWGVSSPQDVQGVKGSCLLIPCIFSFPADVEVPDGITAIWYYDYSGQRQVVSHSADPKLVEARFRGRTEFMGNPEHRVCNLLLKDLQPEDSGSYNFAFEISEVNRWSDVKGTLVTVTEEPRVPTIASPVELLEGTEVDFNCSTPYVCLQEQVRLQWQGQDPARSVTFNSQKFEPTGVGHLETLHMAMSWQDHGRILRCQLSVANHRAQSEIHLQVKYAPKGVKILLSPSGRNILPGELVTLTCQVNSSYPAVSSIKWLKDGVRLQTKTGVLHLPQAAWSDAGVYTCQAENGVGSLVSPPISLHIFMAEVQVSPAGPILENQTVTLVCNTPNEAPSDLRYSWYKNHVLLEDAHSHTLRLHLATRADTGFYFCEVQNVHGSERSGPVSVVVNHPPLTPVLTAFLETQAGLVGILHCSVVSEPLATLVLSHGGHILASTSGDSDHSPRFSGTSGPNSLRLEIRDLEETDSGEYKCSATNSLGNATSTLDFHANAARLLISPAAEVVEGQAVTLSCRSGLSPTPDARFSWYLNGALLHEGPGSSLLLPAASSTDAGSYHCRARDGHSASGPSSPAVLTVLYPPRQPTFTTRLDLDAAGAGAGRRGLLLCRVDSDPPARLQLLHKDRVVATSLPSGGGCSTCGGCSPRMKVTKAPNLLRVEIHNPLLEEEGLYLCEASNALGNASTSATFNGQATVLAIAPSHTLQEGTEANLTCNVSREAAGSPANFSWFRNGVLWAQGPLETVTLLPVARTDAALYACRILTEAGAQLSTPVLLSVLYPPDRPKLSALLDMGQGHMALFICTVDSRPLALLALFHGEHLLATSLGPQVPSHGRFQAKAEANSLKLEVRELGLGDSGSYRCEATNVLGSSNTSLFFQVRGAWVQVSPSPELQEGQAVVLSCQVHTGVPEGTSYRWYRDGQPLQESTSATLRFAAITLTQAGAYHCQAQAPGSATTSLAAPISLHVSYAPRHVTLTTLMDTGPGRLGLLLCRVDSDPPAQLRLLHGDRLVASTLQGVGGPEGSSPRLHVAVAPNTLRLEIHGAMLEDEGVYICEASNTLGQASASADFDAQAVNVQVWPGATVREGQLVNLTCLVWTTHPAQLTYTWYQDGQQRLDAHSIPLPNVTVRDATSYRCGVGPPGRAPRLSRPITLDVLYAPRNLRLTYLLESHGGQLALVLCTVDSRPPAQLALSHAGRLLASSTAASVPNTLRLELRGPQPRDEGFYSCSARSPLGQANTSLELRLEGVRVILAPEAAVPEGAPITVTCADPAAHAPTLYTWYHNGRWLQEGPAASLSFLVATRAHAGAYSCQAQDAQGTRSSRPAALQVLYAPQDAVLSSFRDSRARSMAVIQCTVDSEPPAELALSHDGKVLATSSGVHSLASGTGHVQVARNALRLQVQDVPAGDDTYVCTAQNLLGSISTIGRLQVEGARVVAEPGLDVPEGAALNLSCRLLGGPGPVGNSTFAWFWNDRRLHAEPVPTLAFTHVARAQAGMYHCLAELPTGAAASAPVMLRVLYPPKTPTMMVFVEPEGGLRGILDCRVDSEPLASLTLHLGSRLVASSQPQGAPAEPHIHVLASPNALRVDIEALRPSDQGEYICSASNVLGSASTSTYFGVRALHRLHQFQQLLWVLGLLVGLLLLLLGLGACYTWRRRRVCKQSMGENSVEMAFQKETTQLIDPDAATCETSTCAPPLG
T7 sequence (Q9NYZ4 17-499 R125A): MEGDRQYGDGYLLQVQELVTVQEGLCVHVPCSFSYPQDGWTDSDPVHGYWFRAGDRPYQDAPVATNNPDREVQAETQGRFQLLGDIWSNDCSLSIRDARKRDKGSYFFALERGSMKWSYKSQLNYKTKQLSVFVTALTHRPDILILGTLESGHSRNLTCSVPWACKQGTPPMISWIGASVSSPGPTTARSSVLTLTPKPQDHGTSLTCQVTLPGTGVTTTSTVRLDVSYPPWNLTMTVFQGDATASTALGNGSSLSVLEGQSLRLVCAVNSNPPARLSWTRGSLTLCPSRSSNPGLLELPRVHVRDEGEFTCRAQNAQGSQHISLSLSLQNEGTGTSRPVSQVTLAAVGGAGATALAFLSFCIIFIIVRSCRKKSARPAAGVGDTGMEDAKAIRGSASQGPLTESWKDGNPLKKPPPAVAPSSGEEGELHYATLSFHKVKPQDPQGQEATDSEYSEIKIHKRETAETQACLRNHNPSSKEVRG
T4 sequence (P20138 18-364): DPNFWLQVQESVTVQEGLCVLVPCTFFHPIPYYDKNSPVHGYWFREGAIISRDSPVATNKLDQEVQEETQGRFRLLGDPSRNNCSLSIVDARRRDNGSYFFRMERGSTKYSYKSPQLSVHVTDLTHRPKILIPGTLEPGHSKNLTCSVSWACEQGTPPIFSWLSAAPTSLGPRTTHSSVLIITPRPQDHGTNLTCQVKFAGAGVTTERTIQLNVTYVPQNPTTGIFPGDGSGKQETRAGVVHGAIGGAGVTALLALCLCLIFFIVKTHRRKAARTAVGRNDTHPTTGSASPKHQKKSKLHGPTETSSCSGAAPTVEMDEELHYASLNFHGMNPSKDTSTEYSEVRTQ

Substance	log10(MFI AF647) of GLL relative to log10(MFI AF647) of the same GLL against UT CHO cells (Fig. 2a) (R122A Siglec-6 CHO cells)	log10(MFI AF647) of GLL relative to log10(MFI AF647) of the same GLL against UT CHO cells (Fig. 2a) (CD22 WT CHO cells)	log10(MFI AF647) of GLL relative to log10(MFI AF647) of the same GLL against UT CHO cells (Fig. 2a) (Siglec-11 WT CHO cells)	log10(MFI AF647) of GLL relative to log10(MFI AF647) of the same GLL against UT CHO cells (Fig. 2a) (CD33 WT CHO cells)	log10(MFI AF647) of GLL relative to log10(MFI AF647) of the same GLL against UT CHO cells (Fig. 2a) (WT Siglec-6 CHO cells)	log10(MFI AF647) of GLL relative to log10(MFI AF647) of the same GLL against UT CHO cells (Fig. 2a) (Siglec-1 R116A CHO cells)	log10(MFI AF647) of GLL relative to log10(MFI AF647) of the same GLL against UT CHO cells (Fig. 2a) (Siglec-8 R125A CHO cells)
GQ1b	0.46 and 0.48 and 0.4 and 0.42	-0.05 (3×) and -0.04	-0.25 and -0.21 and -0.2 and -0.24	-0.12 (2×) and -0.14 and -0.09	0.57 and 0.55 and 0.54 and 0.56	-0.29 and -0.27 and -0.24 and -0.3	0.01 and -0.02 and -0.04 and -0.05
GT1b	0.72 and 0.7 and 0.61 and 0.69	0.06 (2×) and 0.04 and 0.05	-0.17 and -0.15 and -0.13 (2×)	-0.09 and -0.1 and -0.08 and -0.06	0.81 and 0.79 and 0.8 (2×)	-0.14 (2×) and -0.15 and -0.1	-0.22 (2×) and -0.23 and -0.24
